In the METLIN SMRT retention time set (Domingo-Almenara et al. 2019) one finds RP-LC retention time data, which are given here for 78 molecules.

This data set is described as follows: gradient 5% acetonitrile 3 min, to 50% in 2 min, to 85% in 15 min, held 3 min, 100 µL/min. To be noted: column: Zorbax Extend-C18 2.1 x 50 mm; eluents: water / acetonitrile, 0.1% formic acid. Put shortly: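 Pure standards were analyzed in mixtures of ~100 molecules using HPLC coupled to a quadrupole time-of-flight mass spectrometer, in both positive and negative ionization mode. Separation used a Zorbax Extend-C18 column (2.1 × 50 mm, 1.8 μm) at 100 μL/min, with water and acetonitrile each containing 0.1% formic acid. Dead and dwell volumes were 40 μL and 900 μL, and data were collected over 3 months. Retention time was read from computationally picked adduct peaks, each inspected manually.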
Consider `Cc1ccc(S(=O)(=O)N2CCC(F)(c3nc(CC(C)C)no3)CC2)cc1F`, for which the RP-LC retention time was determined as 1200 s. Molecule `COc1ccccc1-c1nnc(-c2ccc(C)c(S(=O)(=O)N3CCOCC3)c2)o1` yielded an RP-LC retention time of 867 s. The result for `O=C(c1ccccc1C(F)(F)F)N1CCC2(C1)C(=O)Nc1ccccc12` (stereo not drawn) reads 743 s; that for `Cc1ccc(NC(=O)Cc2nnc(-c3cnccn3)o2)c(C)c1`, 700 s. `CCN1CCN(C(=O)CC2CCN(C(=O)c3[nH]c(C)c(C(=O)OC(C)C)c3C)CC2)CC1` returned an RP-LC retention time of 612 s. The result for `CCCn1c(=O)oc2cc(NC(=O)NCC(=O)OCC)ccc21` reads 703 s. The result for `CCN1CCN(c2ncc(C(=O)Nc3c(F)cc(F)cc3Br)c3ccccc23)CC1` reads 581 s; that for `O=C(NCCC1=CCCCC1)C(=O)NCC1CCN(S(=O)(=O)C2CC2)CC1`, 826 s; that for `Cc1nc(-c2cccc(-c3noc(CNC(=O)Cc4ccc(Cl)cc4)n3)c2)cs1`, 986 s. The result for `Cc1ccc(-c2csc(Nc3cc(C)ccn3)n2)cc1` reads 843 s.

In the case of `CCS(=O)(=O)N1CCN(Cc2ccc(OC)nc2)CC1`, the RP-LC retention time amounted to 921 s. The value for `O=C(CCc1c(-c2ccccc2)nc2ccccn12)Nc1ccc(Cl)cc1F` was 715 s; that for `O=C(NCc1cccs1)C1CCN(C(=O)c2ncn3c2COC(c2ccccc2)C3)CC1` (stereo not drawn) was 725 s; that for `COc1ccc(-c2nc3cccnc3n2C2CCN(C(=O)NC(C)C)C2)cc1` (stereo not drawn) was 667 s. Molecule `Cc1ccc(C)c(-c2cc3c4nn(CC(=O)Nc5cc(F)ccc5F)c(=O)n4ccn3n2)c1` showed an RP-LC retention time of 1050 s. On to `CCOc1ccccc1NC(=O)N1CCCC1c1nc(-c2cccc(OC)c2)no1` (stereo not drawn), for which the RP-LC retention time came to 1100 s. The value for `O=C(c1ccco1)N1CCCn2cc(-c3ccc4c(c3)OCO4)nc21` was 661 s; that for `CSc1cccc(NC(=O)CSc2nnc3c4cc(-c5ccc(C)c(C)c5)nn4ccn23)c1` was 1030 s; that for `CCCN(CCC)S(=O)(=O)c1cccc(-c2cn3cc(C)ccc3n2)c1` was 731 s. For `CC1CCC2(CC1)NC(=O)N(CC(=O)NCCc1ccc(Cl)cc1)C2=O` (stereo not drawn), the RP-LC retention time came out at 863 s. The result for `CCN(C(=O)Nc1ccccc1C(=O)OC)c1nc(-c2ccc(C3CCCCC3)cc2)cs1` reads 590 s. The result for `COc1ccccc1Nc1c(-c2ccc(Cl)cc2)nc2cnccn12` reads 1020 s. Regarding `Cc1ccc(NC(=O)N2CCCC2c2nc(-c3cccc(Cl)c3)no2)cc1` (stereo not drawn), the RP-LC retention time turned out to be 1110 s.

`O=C(CSc1ccc(N2CCC(C(=O)NC3CC3)CC2)nn1)NCc1ccc(F)cc1` yielded an RP-LC retention time of 609 s. `CCOc1ccc(-c2ccc(=O)n(CCc3nc(-c4ccccc4)no3)n2)cc1` registered an RP-LC retention time of 1000 s. The result for `O=C(NCCCN1CCOCC1)C(=O)Nc1ccc(Br)cc1F` reads 625 s; that for `Cc1ccn2c(NC(=O)c3c(F)cccc3Cl)c(-c3ccc(F)cc3)nc2c1`, 701 s; that for `COCc1nc2nccc(-c3ccc(OC)cc3)n2n1`, 690 s. As for `Cc1cc(-c2cc(S(=O)(=O)NCc3ccccc3Cl)c(C)s2)n[nH]1`, the RP-LC retention time was determined as 847 s. The result for `CCCCOC(=O)c1ccc(Nc2c(C(=O)N(CC)CC)cnc3nc(C)ccc23)cc1` reads 720 s. The result for `CN1CCn2cc(S(=O)(=O)Nc3ccc(F)c(F)c3)cc2C1=O` reads 671 s. The value for `O=C(Cc1ccc(Cl)cc1)N1CCN(C(=O)c2nnn3c2COC(c2ccccc2)C3)CC1` (stereo not drawn) was 921 s. `CCCc1ccc(S(=O)(=O)N2CCC(C(=O)NCc3csc(-c4cccs4)n3)CC2)cc1`: the RP-LC retention time came out at 1050 s. Turning to `COc1ccc(NC(=O)Cn2nc(C(F)(F)F)c(Br)c2C)cc1OC`, the RP-LC retention time is 958 s.

The molecule `COc1cc(N2C=C(C#N)S(=O)(=O)c3c(F)cccc32)cc(OC)c1OC` gave an RP-LC retention time of 857 s. The value for `CCc1ccc(CNC(=O)C2CCN(c3cnc4nccnc4c3)CC2)cc1` was 747 s; that for `CCOCCCNCc1ccc(-c2ccccc2)o1` was 649 s. In turn, `Cc1cccc(NC(=O)N2CCC(n3cnc4c(Cl)cccc4c3=O)CC2)c1` had an RP-LC retention time of 877 s.

`Cc1cccc(S(=O)(=O)N2CC=C(c3cn(C)c4ncccc34)CC2)c1` registered an RP-LC retention time of 898 s.

`O=C(Cc1nnc(-c2ccc3ncccc3c2)o1)NCc1ccc(F)c(Cl)c1` had an RP-LC retention time of 733 s. In the case of `Cc1ccc(NC(=O)C2CCN(C(=O)c3ncn4c3COC(c3ccc(F)cc3)C4)CC2)c(F)c1` (stereo not drawn), the RP-LC retention time stood at 813 s. The value for `CC1CCN(S(=O)(=O)c2ccc(-c3nnc(C(=O)N4CCCCCC4)o3)cc2)CC1` was 1100 s. The result for `Nc1ncnc2c1nc(Cl)n2C1OC2COP(=O)(O)OC2C1O` (stereo not drawn) reads 523 s; that for `Cc1cccc(-c2nnc(C)c(N3CCN(c4ccccn4)CC3)n2)c1`, 589 s. The result for `O=c1cc(-c2ccc(Cl)cc2)[nH]c2ccccc12` reads 869 s; that for `CC1CCN(c2cc(-n3cnc(C(=O)N4CCN(c5ccccc5F)CC4)c3)ncn2)CC1`, 1090 s. Take `O=C(Nc1ccccc1F)C1CCc2nc(N3CCCCC3)ncc2C1` (stereo not drawn): the RP-LC retention time is 772 s. For the molecule `O=C(NCCCN1CCCC1=O)c1cccc(N2CCNC(c3ccccc3)C2)n1` (stereo not drawn), the RP-LC retention time amounted to 590 s. `COc1ccccc1NC(=O)Cn1ncc2c(N3CCN(c4ccccn4)CC3)ncnc21` registered an RP-LC retention time of 600 s. As to `Cc1ccsc1C(=O)Nc1ccc(SCc2nnc(-c3ccc4c(c3)OCO4)o2)cc1`, the RP-LC retention time turned out to be 978 s. The molecule `CCOC(=O)c1c(S(=O)(=O)N2CCC(C(=O)Nc3ccccn3)CC2)c(C)n(C)c1C` showed an RP-LC retention time of 678 s. `CSc1ccc(-c2nc3cnccn3c2Nc2ccc(C(=O)NCc3ccco3)cc2)cc1` registered an RP-LC retention time of 778 s. Regarding `Cc1ccc(N2C(=O)N(Cc3cccc(F)c3)S(=O)(=O)c3cccnc32)cc1`, the RP-LC retention time worked out at 1080 s. `Cc1occc1C(=O)N1CCCn2ccnc2C1c1cnn(C)c1` (stereo not drawn) had an RP-LC retention time of 573 s.

For `Cc1nc2ccn(Cc3cccnc3)c(=O)c2cc1C(=O)NC1CCCCC1`, the RP-LC retention time amounted to 620 s.

On to `Cc1ccc2[nH]cc(CCNC(=O)C3CCCN(C(=O)c4[nH]c(C)cc4C)C3)c2c1` (stereo not drawn), for which the RP-LC retention time amounted to 832 s. The result for `Cc1cc(C)c2c(N3CCOCC3)nc(C(=O)NCc3cc(F)ccc3F)nc2n1` reads 590 s; that for `CCOCCCNC(=O)C1c2ccccc2C(=O)N(C2CCCC2)C1c1cccs1` (stereo not drawn), 882 s. The value for `CC(C)COc1cc(=O)n2c(c1C(=O)NCCCN1CCOCC1)CCCCC2` was 570 s; that for `CCOC(=O)c1c(C)[nH]c(C(=O)N2CCCC(C(=O)NCc3ccc(OC)cc3)C2)c1C` (stereo not drawn) was 780 s. In the case of `CCn1c(=O)c(N2CCCC(C(=O)N3CCN(C(=O)c4ccco4)CC3)C2)nc2ccccc21` (stereo not drawn), the RP-LC retention time came to 832 s.

`O=C1NCCOCCN(C(=O)Nc2ccc3c(c2)OCCO3)[C@@H]2CCCC[C@H]12`: the RP-LC retention time came to 722 s.

The molecule `Cc1nnc(-c2ccc3ccn(CC(=O)N4CCN(c5ccc(F)cc5)CC4)c3c2)o1` returned an RP-LC retention time of 827 s.

`Cn1cc(-c2cc3n(n2)CCCN3C(=O)CCC(=O)NCc2ccccc2)c2ccccc21` yielded an RP-LC retention time of 804 s. In turn, `CN(C)c1cc(C(=O)NCc2ccncc2)nc2ccnn12` gave an RP-LC retention time of 581 s.

In turn, `Cc1cc2c(c(=O)n(-c3ccccc3)c(=O)n2CC(=O)Nc2cccc(F)c2)n1C` returned an RP-LC retention time of 837 s. In turn, `CS(=O)(=O)N[C@H]1C[C@@H]2C[C@H]1CN2C(=O)c1ccccc1C(F)(F)F` returned an RP-LC retention time of 705 s. The result for `COc1cccc2sc(N(Cc3ccco3)C(=O)c3cc(C)nn3C)nc12` reads 927 s; that for `CCCS(=O)(=O)Nc1cccc(-c2cn3cccc(C)c3n2)c1`, 624 s. The value for `O=C(NCCN1CCOCC1)c1ccc(Nc2c(-c3ccc(Cl)cc3)nc3cnccn23)cc1` was 620 s; that for `CCOC(=O)C1CCN(C(=O)Cc2nnc(-c3sccc3C)o2)CC1` was 774 s; that for `O=C(NCc1csc(-c2ccccc2)n1)C1CCCN(c2cc(-n3cccn3)ncn2)C1` (stereo not drawn) was 813 s. The value for `Cc1ccc(CNC(=O)C2CCCN(C(=O)c3cc(-c4cccnc4)n[nH]3)C2)o1` (stereo not drawn) was 611 s; that for `Cc1ccc(-c2noc(Cn3c(=O)n(C(C)C)c(=O)c4ccccc43)n2)cc1` was 1150 s; that for `CCn1nc(C)n2cc(S(=O)(=O)N3CCC(Cc4ccccc4)CC3)cc2c1=O` was 1040 s. `Cc1ccc(C(=O)Nc2ccc(N3CCN(C4CCCC4)C3=O)nc2)cc1` yielded an RP-LC retention time of 888 s. For `Cc1cccn2cc(-c3cccc(NS(=O)(=O)c4ccc(Cl)c(Cl)c4)c3)nc12`, the RP-LC retention time is 747 s. The value for `O=C(Cc1ccc(S(=O)(=O)N2CCN(c3ccccn3)CC2)s1)N1CCOCC1` was 1260 s.
